This is an account of results in ChEMBL document CHEMBL1201862, “PubChem BioAssay data set” (2004).

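Briefly, cells in 96-well plates were exposed to five compound concentrations for 48 h, and endpoints were estimated by linear interpolation. Abbreviation: GI50, concentration required for 50% inhibition of growth.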 Calls of active or inactive are those of the source. Cut-off read from the data, not from the text of the source: active = GI50 up to about 1.1 µM and inactive = higher.

Holding throughout (experiment): NCI tumour cell line growth inhibition, 48 h
Assay [1] concerns 786-0.
Assay [2] deals with A498.
Assay [3] has as its system A549.
For assay [4], the system named is CAKI-1.
For assay [5], the system named is COLO 205.
Assay [6] concerns HCC 2998.
The test system of assay [7] is HCT-15.
Assay [8] deals with K562.
In assay [9] the test system is MDA-N.
The test system of assay [10] is NCI-H23.
Assay [11] relates to OVCAR-5.
Assay [12] deals with PC-3.
The test system of assay [13] is RPMI-8226.
Assay [14] relates to RXF 393.
The test system of assay [15] is SF-268.
Assay [16] deals with SK-MEL-28.
In assay [17] the test system is SK-MEL-2.
The test system of assay [18] is SK-MEL-5.
The test system of assay [19] is UO-31.
For assay [20], the system named is SF-539.

For `CCOC(=O)c1c[nH]c(C(=O)C=[N+]=[N-])c1C1CCN(CC)C1=S` (configuration not stated), the GI50 in assay [1] is > 100 µM (inactive); in [2], > 100 µM (inactive); in assay [3] it was > 100 µM (inactive); in assay [4] it was > 100 µM (inactive); in assay [5], 63.5 µM (inactive); in assay [6] it was > 100 µM (inactive). Further, the GI50 in assay [7] was more than 100 µM; in assay [8] it was > 100 µM (inactive); in assay [9] it was > 100 µM (inactive); in [10], 99.8 µM (inactive); in assay [11], > 100 µM (inactive); in [12], > 100 µM (inactive). Further, the GI50 in [13], in assay [14], in [15], in assay [16], in assay [17] and in assay [18] was > 100 µM (inactive) throughout. In [19], the GI50 is > 100 µM (inactive).

Regarding `C/C(=C1/N=C(c2ccccc2)OC1=O)c1ccc(C)cc1`, the GI50 in [1], in [2], in [3], in assay [4], in assay [5] and in assay [6] was > 100 µM (inactive) each time. Also, the GI50 is more than 100 µM in [7]; > 100 µM (inactive) in [8]; > 100 µM (inactive) in [9]; > 100 µM (inactive) in assay [10]; > 100 µM (inactive) in assay [11]; > 100 µM (inactive) in assay [12]. The GI50 in assay [13] was 74.1 µM (inactive); in assay [14] it was > 100 µM (inactive); in assay [15] it was > 100 µM (inactive); in assay [20] it was > 100 µM (inactive); in [16], > 100 µM (inactive); in [17], > 100 µM (inactive). In addition, the GI50 in assay [18] is > 100 µM (inactive).

`CC(=O)OC1CCC2C3CCc4c(C)ccc(OS(=O)(=O)c5ccccc5)c4C3CCC12C` (configuration not stated): the GI50 in assay [1] was 6.76 µM (inactive); in [2], 32.5 µM (inactive); in assay [4], 24 µM (inactive); in assay [5] it was 18.6 µM (inactive); in assay [6] it was 64.9 µM (inactive); in assay [7], 7.73 µM. Also, the GI50 was 5.69 µM (inactive) in [8]; > 100 µM (inactive) in assay [9]; 16.3 µM (inactive) in assay [10]; 86.1 µM (inactive) in [11]; 5.57 µM (inactive) in [12]; 21.7 µM (inactive) in assay [13]. Also, the GI50 in assay [14] was 31.1 µM (inactive); in assay [15], > 100 µM (inactive); in assay [16], > 100 µM (inactive); in assay [17], 30.8 µM (inactive); in assay [18], 3.74 µM (inactive); in [19], 21.9 µM (inactive).

In the case of `CCC(CCCC[C@H]1CC[C@@H]2CC(=O)C[C@H]12)OC` (some centres not stated), the GI50 in assay [1], in assay [2], in assay [3], in [4], in assay [5] and in assay [6] was > 100 µM (inactive) in each case. For the same compound, the GI50 in assay [7] was more than 100 µM; in assay [8], 25.6 µM (inactive); in assay [9], > 100 µM (inactive); in assay [10], 35.2 µM (inactive); in assay [11], > 100 µM (inactive); in assay [12], > 100 µM (inactive). Also, the GI50 in [13], in assay [14], in assay [15], in assay [20], in assay [16] and in assay [17] was > 100 µM (inactive) throughout. Also, the GI50 in [18] was 31.8 µM (inactive).

Consider `Nc1cc(C(=O)O)nc(O)n1`, for which the GI50 in assay [1], in [2], in assay [3], in [4], in assay [5] and in assay [6] was > 100 µM (inactive) in each case. Also, the GI50 in assay [7] was more than 100 µM; in [8], > 100 µM (inactive); in [9], > 100 µM (inactive); in assay [10], > 100 µM (inactive); in assay [11], > 100 µM (inactive); in assay [12], > 100 µM (inactive). For the same compound, the GI50 in assay [13], in assay [14], in [15], in assay [16], in assay [17] and in assay [18] was > 100 µM (inactive) each time. For the same compound, the GI50 in assay [19] was > 100 µM (inactive).

On to `COc1ccccc1N1C(=O)C2C3c4ccccc4C(OC(C)=O)(c4ccccc43)C2C1=O` (configuration not stated), for which the GI50 in [1] was 39.3 µM (inactive); in assay [2], > 100 µM (inactive); in [3], > 100 µM (inactive); in assay [4], > 100 µM (inactive); in assay [5], > 100 µM (inactive); in assay [6] it was > 100 µM (inactive). Further, the GI50 in [7] was more than 100 µM; in assay [8], > 100 µM (inactive); in assay [9], > 100 µM (inactive); in [10] it was > 100 µM (inactive); in [11] it was > 100 µM (inactive); in assay [12] it was > 100 µM (inactive). Further, the GI50 in assay [13] was > 100 µM (inactive); in [14], > 100 µM (inactive); in [15] it was 30.8 µM (inactive); in assay [20], 72.1 µM (inactive); in assay [16] it was 71.9 µM (inactive); in assay [18] it was > 100 µM (inactive). In addition, the GI50 in assay [19] was > 100 µM (inactive).

For `C/C(Cc1ccc2c(c1)OCO2)=N\NC(=O)C(C)Sc1nnc(SC(C)C(=O)N/N=C(\C)Cc2ccc3c(c2)OCO3)s1` (configuration not stated), the GI50 in assay [1] was > 100 µM (inactive); in [2], 62.4 µM (inactive); in [3], > 100 µM (inactive); in assay [4], > 100 µM (inactive); in assay [5], > 100 µM (inactive); in assay [6], > 100 µM (inactive). Besides, the GI50 is more than 100 µM in assay [7]; 32.1 µM (inactive) in assay [8]; > 100 µM (inactive) in [9]; > 100 µM (inactive) in [10]; > 100 µM (inactive) in [11]; > 100 µM (inactive) in assay [12]. Also, the GI50 in assay [13] is 37.6 µM (inactive); in assay [14] it was > 100 µM (inactive); in [15] it was > 100 µM (inactive); in [16], > 100 µM (inactive); in assay [17], > 100 µM (inactive); in assay [18] it was 69.3 µM (inactive). Besides, the GI50 in [19] is > 100 µM (inactive).

For the compound `O=c1[nH]nc(-c2ccccc2)n1/N=C/c1cccnc1`, the GI50 in assay [1] was > 100 µM (inactive); in assay [2], 27 µM (inactive); in assay [3], > 100 µM (inactive); in [4], 25.1 µM (inactive); in assay [6] it was 95.5 µM (inactive); in assay [7] it was 61.1 µM. Also, the GI50 in [8] is 40.5 µM (inactive); in assay [9], 34.9 µM (inactive); in assay [10] it was > 100 µM (inactive); in assay [11] it was 92.5 µM (inactive); in [12] it was 52.2 µM (inactive); in assay [13] it was 74 µM (inactive). For the same compound, the GI50 in assay [14] was 34.4 µM (inactive); in assay [15] it was > 100 µM (inactive); in assay [20], 40.4 µM (inactive); in [16], > 100 µM (inactive); in assay [18], 57 µM (inactive); in assay [19], > 100 µM (inactive).

Turning to `O=C(O)c1c(O)c2cc(Br)ccc2oc1=O`, the GI50 in assay [1], in assay [2], in [3], in [4], in assay [5] and in assay [6] was > 100 µM (inactive) each time. The GI50 in [7] was more than 100 µM; in [8], > 100 µM (inactive); in [9] it was > 100 µM (inactive); in [10], > 100 µM (inactive); in assay [11] it was > 100 µM (inactive); in assay [12], > 100 µM (inactive). The GI50 in [13], in [14], in assay [15], in assay [20], in assay [16] and in assay [17] was > 100 µM (inactive) each time. The GI50 in assay [18] is > 100 µM (inactive).

Turning to `Cc1cccc2c1C(=O)C1(Cc3ccccc3C1=O)C2` (configuration not stated), the GI50 in assay [1] is > 100 µM (inactive); in assay [2], 47.1 µM (inactive); in [3], > 100 µM (inactive); in [5], > 100 µM (inactive); in assay [6], > 100 µM (inactive); in [7] it was more than 100 µM. Further, the GI50 in assay [8] was > 100 µM (inactive); in assay [9], > 100 µM (inactive); in assay [10] it was > 100 µM (inactive); in [11], > 100 µM (inactive); in assay [12], > 100 µM (inactive); in assay [13] it was 57.9 µM (inactive). Moreover, the GI50 in assay [14] was > 100 µM (inactive); in assay [15], > 100 µM (inactive); in assay [20] it was > 100 µM (inactive); in [16] it was > 100 µM (inactive); in [18], > 100 µM (inactive); in assay [19], 28.9 µM (inactive).
